Consider 1 compound from US20070037782A1, “Therapeutic agent for ageing macular degeneration” (MEIJI DAIRIES CORPORATION, priority 2003, published 2007).

In the experiment the test system is rat model of laser-induced choroidal neovascularization. Put plainly: Inhibitory effect on choroidal neovascularization (CNV) after subconjunctival administration, rat model of laser-induced CNV. The format is in vivo, Rats (Brown Norway). Conditions: for incidence of CNV relative to that of the base group: single subconjunctival administration, 14 days after photocoagulation, mean±S.E., P<0.01 vs base group. How it is done:
An inhibitory effect on choroidal neovascularization caused by the subconjunctival administration of FMPA was assessed using a rat model of laser-induced choroidal neovascularization (which may hereinafter be abbreviated as CNV).
Rats (Brown Norway, 8 week old, male) were given general anesthesia and their pupils were dilated with one drop of commercially available eye-drops (“Mydrin P”, trade name; product of Santen Pharmaceutical Co. Ltd.) They were then subjected to photocoagulation by a krypton laser photocoagulation apparatus (“MC-7000L”, manufactured by NIDEK Co., Ltd.). The photocoagulation was performed sporadically at 8 sites while focusing on the deep layer of the retina and avoiding laser irradiation to thick retinal blood vessels (coagulation conditions: spot size of 100μm, output of 100 mW and coagulation time for 0.1 second). This photocoagulation was given to both eyes. After photocoagulation, the sites exposed to laser were confirmed by fundus photography. These rats were bred for 14 days, whereby CNV rat models were produced. […]
Fourteen days after photocoagulation, 0.1 mL of 10 wt.% fluorescein was injected through the caudal vein and based on the photograph taken by a fluorescein fundus camera (“Pro III”, product of Kowa Company Ltd), presence or absence of CNV was observed. […] A ratio of the number of positive sites to the number of all the exposed sites (8 sites) of eyeballs was calculated and the incidence of CNV of each administration group was calculated when the CNV incidence of the base group (Group 1) was assumed to be 1.00. […]
The incidence of CNV was expressed as a mean value±S.E. Comparison between the base group (Group 1) and each FMPA group (Groups 2 and 3) was made using analysis of variance, followed by Dunnett multiple comparison tests, while comparison between the base group and Comparative medicament group (Group 4) or comparison between the FMPA group (Group 2) and Comparative medicament group was made using t-test. […]

`CC(=O)O[C@]1(C(C)=O)CC[C@H]2[C@@H]3C[C@H](C)C4=CC(=O)CC[C@]4(C)[C@@]3(F)CC[C@@]21C` [FMPA, 9α-fluoromedroxyprogesterone acetate]: the “incidence of CNV relative to that of the base group” value by setting is: (1000 μg/eye) 62.2±6.7%; (3000 μg/eye) 48.9±6.5%. For the same compound, where the note is “1000 and 3000 μg/eye, subconjunctival, rat”, the “CNV inhibitory effect (in words)” value was “dose-dependent CNV inhibitory effect”.
